Experimental data taken from patent US8440423B2, “Bioremediation of nanomaterials” (U.S. Department of Energy, priority 2007, dated 2013).

Experiments:
[1] = Solubility in water; type: physicochemical
[2] = test system: E. coli, and B. subtilis; conditions: up to 5 mg/L; cited from earlier work
[3] = test system: mouse skin; conditions: repeating subchronic topical dose on mouse skin for up to 24 weeks; cited from earlier work
[4] = test system: Shewanella oneidensis MR-1; experiment: Growth of S. oneidensis MR-1 in minimal [3-13C]L-lactate medium with nanoparticles added (OD600); type: cell-based
Procedure: (§1) Tracer Experiments. Shewanella oneidensis MR-1 and Escherichia coli W3110 were cultured in minimal medium (described in Tang, Y. J. J.; Laidlaw, D.; Gani, K.; Keasling, J. D. Biotechnology and Bioengineering 2006, 95, (1), 176-184) and hereby incorporated by reference). The medium was supplied with 30 mM (98% [3-^13C]L-lactate) (Cambridge Isotope, USA) as the sole carbon source to support cell growth. The inoculum was prepared in LB medium, which was grown overnight. This culture was inoculated into the minimal medium with a 0.09% inoculation volume. Both S. oneidensis and E. coli were cultured in shake flasks at 30° C. (at 200 rpm in dark). The fullerene compounds (C60, C60—OH, C60—COOH and C60-NH2) were added to the medium to different final concentrations (from 1 mg/L to 80 mg/L) before the exponential phase (OD600=0.09˜0.10). The culture's optical density at a wavelength of 600 nm (OD600) was measured in a spectrophotometer (DU®640, Beckman Instruments, Palo Alto, Calif.) every 2-3 hours. The carbon source (lactate) concentrations at each time point were determined using an enzyme test kit (r-Biopharm Inc., Darmstadt, Germany).
We used minimal medium containing [3-^13C]L-lactate to grow both organisms and test the impact of fullerenes (concentrations range from 0˜80 mg/l) on their growth. Since C60 is not soluble in water and cannot be uniformly suspended in the culture solution, we only applied concentrations less than 20 mg/L in the studies of non-derivatized C60.

[5] = test system: Escherichia coli W3110; experiment: Growth of E. coli W3110 in minimal [3-13C]L-lactate medium with nanoparticles added (OD600); type: cell-based
Procedure: as §1
We used minimal medium containing [3-^13C]L-lactate to grow both organisms and test the impact of fullerenes (concentrations range from 0˜80 mg/l) on their growth. […]

[6] = test system: 22 collection strains including E coli, B. subtilis, etc.; conditions: ~43 mg/L; cited from earlier work

c12c3c4c5c1c1c6c7c2c2c8c3c3c9c4c4c%10c5c5c1c1c6c6c%11c7c2c2c7c8c3c3c8c9c4c4c9c%10c5c5c1c1c6c6c%11c2c2c7c3c3c8c4c4c9c5c1c1c6c2c3c41 [C60, C60 fullerene]
solubility in water [1]: not soluble
Conclusions: effect on growth of prokaryotic microorganisms [2]: inhibitory to
carcinogenicity [3]: non-carcinogenic
effect on S. oneidensis MR-1 (growth), summary statement [4]: mild negative effects
S. oneidensis growth course after addition of nanoparticles ([4]; 20 mg/L and 40 mg/L, FIG. 4b): slowed after addition of nanoparticles, then resumed their normal growth rate
S. oneidensis growth inhibition ([4]; concentrations up to 80 mg/L (C60 less than 20 mg/L), FIG. 3b): did not significantly inhibit
E. coli growth course after addition of nanoparticles ([5]; 20 mg/L and 40 mg/L, FIG. 4a): slowed after addition of nanoparticles, then resumed their normal growth rate
E. coli growth inhibition ([5]; concentrations up to 80 mg/L (C60 less than 20 mg/L), FIG. 3a): did not significantly inhibit
Conclusions: effect on 22 collection strains [6]: No effect
